Laboratory results published in patent US20070231375A1, “Liposome combination and the use thereof” (Taipei Medical University, priority 2006, published 2007).

Tests used:
A431 cells = test: MTT Assay-2 (A431); format: cell-based; conditions: 0.5 μg/ml Doxorubicin, no light
Experimental: A431 or CL1-5 cells (approx. 5000 cells) were seeded in each well of a 96-well plate and incubated in medium. After 24 hr of incubation, Doxorubicin (FD), Liposomal-Doxorubicin (LD) and Liposomal-Doxorubicin-Hematoporphyrin (LDH) was added into each well and drug concentration was set at 0.5 μg/ml Doxorubicin and 0.3 μg/ml Hp, After 2 hr, the cells of experiment group were illuminated for 10, 20, or 30 J/cm^2, and MTT assay was performed 72 hr later.

CL1-0 cells = test: MTT Assay-2 (CL1-0); format: cell-based; conditions: 0.5 μg/ml Doxorubicin; no light

For COc1cccc2c1C(=O)c1c(O)c3c(c(O)c1C2=O)C[C@@](O)(C(=O)CO)C[C@@H]3O[C@H]1C[C@H](N)[C@H](O)[C@H](C)O1 [FD, Doxorubicin], the “toxicity to cell A431 (in words)” value (A431 cells) was “has toxicity to cell A431 significantly”, the “activity of mitochondia dehydrogenase (of control group)” value (A431 cells; A431, 0.3 μg/ml Hp, MTT 72 hr) was “about 30%” and the “toxicity to cell CL1-0 (in words)” value (CL1-0 cells) was “has toxicity to cell CL1-0 significantly”.
